Measurements published in patent publication US11767341B2, “Lincosamide antibiotics and uses thereof” (President and Fellows of Harvard College, priority 2017, dated 2023).
Converted amounts (≈) assume the structure as drawn.

Assays:
Experiment in all cases: MIC determination
Type in all cases: cell-based
[1] = system: S. pyogenes UNT-014, MP-625 MacRes; conditions: Streptococcus pyogenes; S. pyogenes UNT-014, MP-625 MacRes; read-out: MIC
[2] = system: S. pneumoniae UNT-039, MP-627, TP1517 (mefA); conditions: Streptococcus pneumoniae
[3] = system: S. aureus BAA-1556 (USA 300); conditions: Staphylococcus aureus; S. aureus BAA-1556 (USA 300); read-out: MIC
[4] = system: K. pneumoniae IHMA 658692; KPC-2; conditions: Klebsiella pneumoniae; K. pneumoniae IHMA 658692; KPC-2; read-out: MIC
S. pyogenes ATCC 19615 = conditions: Streptococcus pyogenes, ATCC19615; S. pyogenes ATCC 19615; read-out: MIC
[5] = system: S. aureus UNT-146, MP-620, TP 506 (ermA); conditions: Staphylococcus aureus; S. aureus UNT-146, MP-620, TP 506 (ermA); read-out: MIC
E. faecalis UNT-047 VRE = conditions: Enterococcus faecalis; E. faecalis UNT-047 VRE; read-out: MIC
[6] = system: S. aureus UNT-120, MP-619, NRS22 (USA 600, GISA); conditions: Staphylococcus aureus; S. aureus UNT-120, MP-619, NRS22 (USA 600, GISA); read-out: MIC
S. pneumoniae ATCC 49619 = conditions: Streptococcus pneumoniae, ATCC49619; S. pneumoniae ATCC 49619; read-out: MIC
[7] = system: S. pneumoniae UNT-038, MP-626, TP 160 (mefA); conditions: Streptococcus pneumoniae
E. coli ATCC 25922 = conditions: Escherichia coli, ATCC25922, E. coli ATCC 25922; read-out: MIC
H. influenzae ATCC 49247 = conditions: Haemophilus influenzae, ATCC49247; H. influenzae ATCC 49247; read-out: MIC
E. coli GUEST131 (NDM-1) = conditions: Escherichia coli
P. aeruginosa ATCC 27853 = conditions: Pseudomonas aeruginosa, ATCC27853; P. aeruginosa ATCC 27853; read-out: MIC
S. aureus ATCC 29213 = conditions: Staphylococcus aureus, ATCC29213, S. aureus ATCC 29213; read-out: MIC
[8] = system: S. pneumoniae TP 1579 (ermB + tet(M, O)); conditions: Streptococcus pneumoniae
[9] = system: S. pneumoniae TP 1537 (ermB + mefA); conditions: Streptococcus pneumoniae; S. pneumoniae TP 1537 (ermB + mefA); read-out: MIC
[10] = system: S. aureus UNT96, NRS710, MP-618 (USA 100, Erythro >8); conditions: Staphylococcus aureus; S. aureus UNT96, NRS710, MP-618 (USA 100, Erythro >8); read-out: MIC
K. pneumoniae ATCC 10031 = conditions: Klebsiella pneumoniae, ATCC10031; K. pneumoniae ATCC 10031; read-out: MIC
E. faecalis ATCC 29212 = conditions: Enterococcus faecalis, ATCC29212, read-out: MIC

| Structure (SMILES) | MIC [1] [µg/mL] | MIC [2] [µg/mL] | MIC [3] [µg/mL] | MIC [4] [µg/mL] | MIC (S. pyogenes ATCC 19615) [µg/mL] | MIC [5] [µg/mL] | MIC (E. faecalis UNT-047 VRE) [µg/mL] | MIC [6] [µg/mL] | MIC (S. pneumoniae ATCC 49619) [µg/mL] | MIC [7] [µg/mL] | MIC (E. coli ATCC 25922) [µg/mL] | MIC (H. influenzae ATCC 49247) [µg/mL] | MIC (E. coli GUEST131 (NDM-1)) [µg/mL] | MIC (P. aeruginosa ATCC 27853) [µg/mL] | MIC (S. aureus ATCC 29213) [µg/mL] | MIC [8] [µg/mL] | MIC [9] [µg/mL] | MIC [10] [µg/mL] | MIC (K. pneumoniae ATCC 10031) [µg/mL] | MIC (E. faecalis ATCC 29212) [µg/mL] |
| --- | --- | --- | --- | --- | --- | --- | --- | --- | --- | --- | --- | --- | --- | --- | --- | --- | --- | --- | --- | --- |
| CSC1O[C@H]([C@H](NC(=O)[C@H]2NC[C@@H]3CCCCO[C@H]32)[C@H](C)Cl)C(O)[C@@H](O)[C@H]1O (some centres unmarked) [FSA-22091] | < 0.0313 | < 0.0313 | > 32 | > 32 | < 0.0313 | > 32 | > 32 | > 32 | < 0.0313 | < 0.0313 | 32 (≈ 72.9 µM) | 8 (≈ 18.2 µM) | > 32 | > 32 | 0.125 (≈ 0.285 µM) | < 0.0313 | 32 | > 32 | 8 (≈ 18.2 µM) | > 32 |
| CSC1O[C@H]([C@H](NC(=O)[C@H]2NC[C@@H]3C=CCO[C@@H]23)[C@H](C)Cl)C(O)[C@@H](O)[C@H]1O (some centres unmarked) [FSA-24039] | 0.125 (≈ 0.296 µM) | ≤ 0.0313 | > 32 | > 32 | 0.125 (≈ 0.296 µM) | > 32 | > 32 | > 32 | 0.0625 (≈ 0.148 µM) | 0.125 (≈ 0.296 µM) | > 32 | 32 (≈ 75.7 µM) | > 32 | > 32 | 1 (≈ 2.36 µM) | 0.0625 (≈ 0.148 µM) | > 32 | > 32 | > 32 | 32 (≈ 75.7 µM) |
| CSC1O[C@H]([C@H](NC(=O)[C@H]2NC[C@@H]3CCCO[C@H]32)[C@H](C)Cl)C(O)[C@@H](O)[C@H]1O (some centres unmarked) [FSA-24041] | 0.0625 (≈ 0.147 µM) | ≤ 0.0313 | > 32 | > 32 | ≤ 0.0313 | > 32 | > 32 | > 32 | 0.0625 (≈ 0.147 µM) | 0.0625 (≈ 0.147 µM) | > 32 | 32 (≈ 75.3 µM) | > 32 | > 32 | 0.5 (≈ 1.18 µM) | ≤ 0.0313 | > 32 | > 32 | > 32 | 32 (≈ 75.3 µM) |
| CSC1O[C@H]([C@H](NC(=O)[C@@H]2[C@@H]3OCCCC[C@H]3CN2C)[C@H](C)Cl)C(O)C(O)[C@H]1O (some centres unmarked) [FSA-24040] | ≤ 0.0313 | ≤ 0.0313 | > 32 | > 32 | ≤ 0.0313 | > 32 | > 32 | > 32 | ≤ 0.0313 | ≤ 0.0313 | > 32 | 8 (≈ 17.7 µM) | > 32 | > 32 | ≤ 0.0313 | ≤ 0.0313 | > 32 | > 32 | 8 (≈ 17.7 µM) | 32 (≈ 70.6 µM) |
